In US12473262B2, “Aryl hydrocarbon receptor activators” (Oregon State University, priority 2019, dated 2025):

Biological target: aryl hydrocarbon receptor (AhR) (Mus musculus (Mouse), UniProt P30561)
Experiment: AhR ligand screening: AhRE-luciferase reporter in transfected Hepa1 cells
Assay type: cell-based
Conditions: for Fold @ 1 nM: fold change of luciferase expression at 1 nM test compound relative to vehicle (0.1% DMSO); for Fold @ 100 nM: fold change of luciferase expression at 100 nM test compound relative to vehicle (0.1% DMSO); for Fold @ 10 uM: fold change of luciferase expression at 10 uM test compound relative to vehicle (0.1% DMSO); for Fold relative to benchmark @ 100 nM: luciferase expression at 100 nM test compound relative to 100 nM benchmark compound 11-cl-BBQ
Outline: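 Mouse Hepa1 cells transfected with an AhRE-luciferase reporter were plated at 1×10^4 cells/well, grown overnight, then exposed to compounds. Cell lysates were assayed for luciferase by luminometry, with results given as fold induction over 0.1% DMSO vehicle.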

Sequence of aryl hydrocarbon receptor (AhR) (P30561 10-805): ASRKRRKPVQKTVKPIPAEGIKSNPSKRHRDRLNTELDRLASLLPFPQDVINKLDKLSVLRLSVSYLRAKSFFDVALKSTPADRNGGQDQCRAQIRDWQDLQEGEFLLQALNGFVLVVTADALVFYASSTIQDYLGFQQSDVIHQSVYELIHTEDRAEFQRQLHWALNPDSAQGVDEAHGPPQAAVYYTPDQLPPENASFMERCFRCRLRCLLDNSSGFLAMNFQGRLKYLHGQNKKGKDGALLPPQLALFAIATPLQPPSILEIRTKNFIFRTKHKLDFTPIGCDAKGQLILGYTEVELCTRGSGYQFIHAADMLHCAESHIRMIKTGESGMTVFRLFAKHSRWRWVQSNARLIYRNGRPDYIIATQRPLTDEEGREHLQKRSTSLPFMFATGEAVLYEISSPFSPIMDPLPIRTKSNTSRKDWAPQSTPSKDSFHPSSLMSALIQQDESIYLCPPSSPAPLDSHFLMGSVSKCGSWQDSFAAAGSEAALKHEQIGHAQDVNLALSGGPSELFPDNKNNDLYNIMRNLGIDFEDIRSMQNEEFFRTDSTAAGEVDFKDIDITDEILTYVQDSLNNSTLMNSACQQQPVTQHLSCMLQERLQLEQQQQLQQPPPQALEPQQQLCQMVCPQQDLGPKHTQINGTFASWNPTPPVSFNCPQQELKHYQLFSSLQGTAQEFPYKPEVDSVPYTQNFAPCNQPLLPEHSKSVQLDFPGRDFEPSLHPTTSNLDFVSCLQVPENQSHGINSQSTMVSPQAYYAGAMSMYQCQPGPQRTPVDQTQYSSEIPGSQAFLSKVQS
Sequence of aryl hydrocarbon receptor (AhR) (P53762 whole entry partner): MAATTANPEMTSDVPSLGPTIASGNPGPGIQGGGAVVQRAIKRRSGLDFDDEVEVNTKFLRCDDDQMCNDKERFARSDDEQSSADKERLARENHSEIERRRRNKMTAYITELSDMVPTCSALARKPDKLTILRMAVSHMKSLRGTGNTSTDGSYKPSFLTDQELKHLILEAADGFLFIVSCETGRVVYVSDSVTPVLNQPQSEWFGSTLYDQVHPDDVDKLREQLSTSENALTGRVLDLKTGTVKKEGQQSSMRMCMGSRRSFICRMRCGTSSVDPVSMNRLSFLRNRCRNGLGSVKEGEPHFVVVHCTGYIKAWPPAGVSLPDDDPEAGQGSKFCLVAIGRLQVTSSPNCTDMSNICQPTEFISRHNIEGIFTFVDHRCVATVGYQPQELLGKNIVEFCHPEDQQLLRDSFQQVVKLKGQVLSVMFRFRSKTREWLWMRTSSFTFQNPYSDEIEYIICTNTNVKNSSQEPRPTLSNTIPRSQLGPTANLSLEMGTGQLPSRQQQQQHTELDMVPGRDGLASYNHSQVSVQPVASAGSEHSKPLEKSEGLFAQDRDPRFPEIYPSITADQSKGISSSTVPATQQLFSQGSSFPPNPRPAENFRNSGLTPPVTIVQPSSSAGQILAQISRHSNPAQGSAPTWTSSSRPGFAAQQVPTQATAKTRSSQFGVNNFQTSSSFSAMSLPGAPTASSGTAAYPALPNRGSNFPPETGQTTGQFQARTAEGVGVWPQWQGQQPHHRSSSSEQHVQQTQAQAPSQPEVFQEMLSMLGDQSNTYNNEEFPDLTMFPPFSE

| Compound | Fold @ 1 nM [fold] | Fold @ 100 nM [fold] | Fold @ 10 uM [fold] | Fold relative to benchmark @ 100 nM [fold] |
| --- | --- | --- | --- | --- |
| COC(=O)c1ccc2c(c1)nc(-c1cccc3ccccc13)n2Cc1ccc(Cl)cc1 [Compound 1406] | 1 | 1 | 4 | 0.03 |
| COC(=O)c1ccc2c(c1)nc(-c1cccc3ccccc13)n2S(=O)(=O)c1ccc(Cl)cc1 [Compound 1385] | 1 | 2 | 5 | 0.07 |
| O=C(c1ccc(SC(F)(F)F)cc1)n1c(-c2cccc3ccccc23)nc2ccc(Cl)cc21 [Compound 687] | 1 | 28 | 32 | 1.08 |
| Clc1ccc2c(c1)nc(-c1cccc3ccccc13)n2Cc1ccncc1 [Compound 876] | 1 | 3 | 32 | 0.06 |
| O=C(c1ccc(F)c(F)c1)n1c(-c2ccccc2-c2ccccc2)nc2cc(Cl)ccc21 [Compound 766] | 1 | 2 | 31 | 0.08 |
| O=C(c1ccc(F)c(F)c1)n1c(-c2cc3ccccc3o2)nc2ccc(Cl)cc21 [Compound 858] | 1 | 10 | 73 | 0.34 |
| O=C(c1ccccc1)n1c(-c2cccc(C(F)(F)F)c2)nc2cc(Cl)ccc21 [Compound 763] | 1 | 2 | 22 | 0.08 |
| COC(=O)c1ccc2nc(-c3cccc4ccccc34)n(S(=O)(=O)c3ccc(Cl)cc3)c2c1 [Compound 1386] | 1 | 2 | 6 | 0.07 |
| COc1ccc(-c2nc3ccc(Cl)cc3n2C(=O)c2ccccc2)cc1 [Compound 497] | 1 | 1.5 | 3.5 | 0.05 |
| CC(C)(C)c1cccc(-c2nc3cc(Cl)ccc3n2C(=O)c2ccccc2)c1 [Compound 790] | 1 | 1 | 2 | 0.04 |
| N#Cc1ccc2c(c1)nc(-c1cccc3ccccc13)n2C(=O)c1ccccc1 [Compound 770] | 1 | 2 | 2 | 0.08 |
| O=C(c1ccc(F)c(F)c1)n1c(-c2cccc3ccccc23)nc2cc(F)ccc21 [Compound 630] | 1 | 5 | 9 | 0.56 |
| O=C(c1ccncc1)n1c(-c2ccccc2)nc2cc(Cl)ccc21 [Compound 432] | 1 | 1 | 7 | 0.03 |
| COc1ccccc1S(=O)(=O)n1c(-c2cccc3ccccc23)nc2cc(C(=O)N3CCCCC3)ccc21 [Compound 1390] | 1 | 1 | 3 | 0.03 |
| O=C(c1ccc(F)c(F)c1)n1c(-c2cc3ccccc3o2)nc2cc(Cl)ccc21 [Compound 857] | 1 | 12 | 75 | 0.41 |
| COC(=O)c1ccc2c(c1)nc(-c1cccc3ccccc13)n2C(=O)c1ccc(OC(F)(F)F)cc1 [Compound 1342] | 1 | 2 | 2 | 0.07 |

| Compound | Fold @ 1 nM [fold] | Fold @ 100 nM [fold] | Fold @ 10 uM [fold] | Fold relative to benchmark @ 100 nM [fold] |
| --- | --- | --- | --- | --- |
| Cc1ccc(S(=O)(=O)n2c(-c3cccc4ccccc34)nc3cc(F)ccc32)cc1 [Compound 631, 5-fluoro-2-(naphthalen-1-yl)-1-tosyl-1H-benzo[d]imidazole] | 1 | 1 | 7 | 0.11 |
| Cc1ccc(S(=O)(=O)n2c(-c3cccc4ccccc34)nc3ccccc32)cc1 [Compound 579] | 1 | 1 | 2 | 0.07 |
| O=C(c1ccc(C(F)(F)F)cc1)c1c[nH]c2ccc(Cl)cc12 [Compound 883] | 1 | 1 | 2 | 0.02 |
| O=C(c1cccc2ccccc12)n1ccc2cc(Cl)ccc21 [Compound 366] | 1 | 1 | 11 | 0.03 |
| COc1ccc(C(=O)n2c(-c3cc4ccccc4s3)nc3ccc(Cl)cc32)cc1 [Compound 591] | 2 | 2 | 38 | 0.13 |
| O=S(=O)(C1CC1)n1c(-c2cccc3ccccc23)nc2ccc(Cl)cc21 [Compound 784] | 1 | 2 | 34 | 0.07 |
| O=C(c1ccc(F)c(F)c1)n1c(-c2ccnc3ccccc23)nc2cc(Cl)ccc21 [Compound 767] | 1 | 2 | 23 | 0.08 |
| O=C1c2ccccc2-c2nc3ccc(Cl)cc3n21 [Compound 488, 4-chloro-1,8-diazatetracyclo[7.7.0.0^2,7.0^10,15]hexadeca-2,4,6,8,10,12,14-heptaen-16-one] | 1 | 1 | 4 | 0.03 |
| O=C(C1CC1)n1c(-c2cccc3ccccc23)nc2cc(Cl)ccc21 [Compound 773] | 1 | 25 | 40 | 1 |
| O=C(c1ccc2nc(-c3cccc4ccccc34)n(S(=O)(=O)c3ccc(Cl)cc3)c2c1)N1CCOCC1 [Compound 1359] | 1 | 1 | 2 | 0.03 |
| O=C(c1ccccc1)n1c(-c2cccc3c2CCCC3)nc2cc(Cl)ccc21 [Compound 777] | 1 | 2 | 6 | 0.08 |
| Cc1ccc(C(=O)n2c(-c3cccc4ccccc34)nc3cc(Cl)ccc32)cc1 [Compound 697] | 1 | 23 | 22 | 0.88 |
| CN1CCN(C(=O)c2ccc3nc(-c4cccc5ccccc45)n(Cc4ccc(F)c(F)c4)c3c2)CC1 [Compound 1365] | 1 | 1 | 2 | 0.03 |
| O=C(c1ccc2c(c1)nc(-c1cccc3ccccc13)n2Cc1ccc(F)c(F)c1)N1CCOCC1 [Compound 1329] | 1 | 1 | 1 | 0.03 |
| O=C(c1ccc2c(c1)nc(-c1cccc3ccccc13)n2S(=O)(=O)c1ccc(Cl)cc1)N1CCCCC1 [Compound 1366] | 1 | 1 | 10 | 0.03 |
| CCc1ccc(S(=O)(=O)n2c(-c3cccc4ccccc34)nc3cc(Cl)ccc32)cc1 [Compound 775] | 1 | 19 | 25 | 0.76 |
